Reference: publication PMC4700278, “Molecular and Biochemical Analysis of the Estrogenic and Proliferative Properties of Vitamin E Compounds” (Frontiers in Oncology, 2016)

How the values were obtained:
[1] = test system: ER-dependent transcription in MELN cells; assay: ERE-luciferase reporter assay in MELN cells (MCF-7 stably transfected with ERE-β-globin-tk-Luc); assay type: cell-based, human; conditions: 500 μM, maximal response = 10 nM E2
From the text: MELN cells were established by transfecting ER(+) MCF-7 cells with the ERE-β-globin-tk-Luc-SV-Neo plasmid ([36]). HELN cells were generated by transfection of ER(−) HeLa cells with this plasmid. The HELN-ERα, HELN-ERβ, HELN-ΔAB-ERα, and HELN-ΔAB-ERβ cell lines then underwent a second transfection with the corresponding pSG5-puro plasmids (pSG5-ERα-puro, pSG5-ERβ-puro, pSG5-ΔAB-ERα-puro, and pSG5-ΔAB-ERβ-puro, respectively) and expressed wild-type or mutated ERα or ERβ ([39], [40]). […] Comparison of the activities toward hERα and hERβ with the truncated ΔAB-ERα and ΔAB-ERβ provides a powerful model to identify partial ER agonists (requiring ligand-independent AF-1 to induce maximal ER activation). […] Cells were grown routinely in DMEM growth medium supplemented with 5% FBS (Gibco BRL, Life Technologies, Cergy pontoise, France). Cells were incubated at 37°C in a humidified 5% CO2 incubator. For experiments, cells were grown for 5 days in phenol red-free medium, containing 6% dextran-coated charcoal-treated FCS (DCC-FCS) with penicillin–streptomycin. Medium was changed after 2 days. On day 5, cells were treated or not with the compounds, which were dissolved in ethanol. For each condition, 15 × 10^3 cells were seeded per well in 12-well plates and treated, as described above, for 8 h in a final volume of 0.5 ml. At the end of the treatment, cells were washed with PBS and lysed in 150 μl lysis buffer (Promega, Charbonnières, France). Luciferase activity was measured using the luciferase assay reagent (Promega), according to the manufacturer’s instructions. Protein concentrations were measured using the Bradford technique ([41]) to normalize the luciferase activity data. For each condition, average luciferase activity was calculated from the data of three independent wells.
(§1) Figure 3 Measurement of estrogenicity of tocols in vitro. (A) Dose–response curve of the effect of tocols on MCF-7 cells stably transfected with the ERE-β-globin-tk-Luc plasmid (MELN cells). […] Data shown are the mean values ± SEM from three independent experiments. […] MCF-7 extracts were analyzed for the presence of ERα by western blotting using GAPDH as a control. […] The western blot shown is representative of three independent experiments. The ratio of ERα to GAPDH levels in each experiment was determined densitometrically and normalized to control value (taken to be 1). (D) Effect of δ-tocols on estrogen response element-dependent luciferase activity in HELN cells, which are HELA cells transfected with either fully functional ERα or ERβ or their mutated versions containing a deletion the AB domain (ΔAB). […] Data shown are the mean values ± SEM from three independent experiments. […] Cells were treated with 500 μM δ-tocols in the presence or in the absence of ICI. The relative expression of TGFα, PR, and Ps2 (TFF1) after 16 h was analyzed by quantitative RT-PCR. Data shown are the mean values ± SEM from three independent experiments.

MDA-MB-231 (ER(−)) cells = assay: Cell proliferation assay (sulforhodamine B); assay type: cell-based, human; conditions: 500 μM δ-TP or δ-TT; 30 μM lovastatin; 6-day period
Protocol: MCF-7 (ER(+)), T47D (ER(+)), and MDA-MB-231 (ER(−)) cell lines were from ATCC. Cell lines were maintained at 37°C in a humidified incubator in a 5% CO2-enriched atmosphere in T-75 flasks. MCF-7, T47D, and MDA-MB-231 cells were grown routinely in phenol red RPMI 1640 medium supplemented with 5% FBS (Gibco BRL, Life Technologies, Cergy Pontoise, France) and with penicillin–streptomycin. Cells were grown for 24 h before treatment in phenol red-free medium containing 5% DCC-FCS. Cells were seeded into 96-well plates at 2000 cells/well. Treatment media (150 μl/well) was added on the following day and replaced at 48-h intervals until the end of the experiment. Cell density was measured via the sulforhodamine B method ([43]) after 0, 2, 4, 6, and 8 days. The absorbance of SRB was measured directly at 490 nm in the 96-well plates using a multiskan® multisoft reader from Labsystem.
Figure 4 Effect of tocol on ER(+) and ER(−) BC cell proliferation and HMG-CoA reductase activity. (A) Effect of δ-tocols on estrogen and non-estrogen-regulated growth of MCF-7, T47D, and MDA-MB-231 cells. […] Cells were also treated with 30 μM lovastatin (Lova) in the presence or absence of 5 mM M, as described in Section “Materials and Methods.” Values are shown as means and vertical bars represent SEM. The data were analyzed by two-way ANOVA, followed by Bonferroni post hoc test. ***P < 0.001, **P < 0.01, and *P < 0.05 in comparison with control or bare-linked specific control. Ns: not significant. (B) Effect of δ-TT on hydroxymethylglutaryl coenzyme A reductase (HMGR) activity in MCF-7, T47D, and MDA-MB-231 cells. […] Data shown are the mean values ± SEM from three independent experiments performed in triplicate.

ERα [2] = target: T1, ERα (Homo sapiens, UniProt P03372); conditions: MCF-7 cells; 500 μM δ-TP or δ-TT, 100 nM E2; 3 h; western blot, GAPDH control
T1 sequence (P03372 1-595): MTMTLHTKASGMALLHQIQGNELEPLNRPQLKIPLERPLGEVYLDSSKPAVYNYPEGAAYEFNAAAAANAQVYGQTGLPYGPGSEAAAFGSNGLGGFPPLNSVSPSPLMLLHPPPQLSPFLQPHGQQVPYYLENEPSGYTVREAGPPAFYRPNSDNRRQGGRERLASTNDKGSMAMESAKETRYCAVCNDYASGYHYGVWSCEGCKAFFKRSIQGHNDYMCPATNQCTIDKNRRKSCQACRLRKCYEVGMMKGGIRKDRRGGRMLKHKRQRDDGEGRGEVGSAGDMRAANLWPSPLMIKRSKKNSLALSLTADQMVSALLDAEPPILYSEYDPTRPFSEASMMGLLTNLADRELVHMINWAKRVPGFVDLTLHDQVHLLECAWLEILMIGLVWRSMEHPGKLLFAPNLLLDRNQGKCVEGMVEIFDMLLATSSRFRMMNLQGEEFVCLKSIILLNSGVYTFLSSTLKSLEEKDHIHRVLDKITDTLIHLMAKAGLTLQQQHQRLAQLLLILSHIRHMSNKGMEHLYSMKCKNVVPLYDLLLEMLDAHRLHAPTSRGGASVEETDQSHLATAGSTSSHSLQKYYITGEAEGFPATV
Protocol: as §1

ERβ = ERβ (Homo sapiens, UniProt Q92731); conditions: HELN-ERβ cells; 500 μM
From the text: (§2) MELN cells were established by transfecting ER(+) MCF-7 cells with the ERE-β-globin-tk-Luc-SV-Neo plasmid ([36]). HELN cells were generated by transfection of ER(−) HeLa cells with this plasmid. The HELN-ERα, HELN-ERβ, HELN-ΔAB-ERα, and HELN-ΔAB-ERβ cell lines then underwent a second transfection with the corresponding pSG5-puro plasmids (pSG5-ERα-puro, pSG5-ERβ-puro, pSG5-ΔAB-ERα-puro, and pSG5-ΔAB-ERβ-puro, respectively) and expressed wild-type or mutated ERα or ERβ ([39], [40]). […] Luciferase activity was measured using the luciferase assay reagent (Promega), according to the manufacturer’s instructions. Protein concentrations were measured using the Bradford technique ([41]) to normalize the luciferase activity data. For each condition, average luciferase activity was calculated from the data of three independent wells.
(§3) Figure 3 Measurement of estrogenicity of tocols in vitro. […] MCF-7 extracts were analyzed for the presence of ERα by western blotting using GAPDH as a control. […] The ratio of ERα to GAPDH levels in each experiment was determined densitometrically and normalized to control value (taken to be 1). […] The relative expression of TGFα, PR, and Ps2 (TFF1) after 16 h was analyzed by quantitative RT-PCR. […]

T47D (ER(+)) cells = assay: Cell proliferation assay (sulforhodamine B); assay type: cell-based, human; conditions: 500 μM δ-TP or δ-TT; 30 μM lovastatin; 6-day period
Protocol: MCF-7 (ER(+)), T47D (ER(+)), and MDA-MB-231 (ER(−)) cell lines were from ATCC. Cell lines were maintained at 37°C in a humidified incubator in a 5% CO2-enriched atmosphere in T-75 flasks. […] Cells were grown for 24 h before treatment in phenol red-free medium containing 5% DCC-FCS. Cells were seeded into 96-well plates at 2000 cells/well. Treatment media (150 μl/well) was added on the following day and replaced at 48-h intervals until the end of the experiment. Cell density was measured via the sulforhodamine B method ([43]) after 0, 2, 4, 6, and 8 days. The absorbance of SRB was measured directly at 490 nm in the 96-well plates using a multiskan® multisoft reader from Labsystem.

ERα [3] = target: T1, ERα; assay: ERE-luciferase reporter assay in HELN-ERα cells; assay type: cell-based; parameters: endogenous in cells; host or cells: MCF-7; conditions: 500 μM
From the text: as §2, §3

Chain of ERβ (Q92731 whole entry): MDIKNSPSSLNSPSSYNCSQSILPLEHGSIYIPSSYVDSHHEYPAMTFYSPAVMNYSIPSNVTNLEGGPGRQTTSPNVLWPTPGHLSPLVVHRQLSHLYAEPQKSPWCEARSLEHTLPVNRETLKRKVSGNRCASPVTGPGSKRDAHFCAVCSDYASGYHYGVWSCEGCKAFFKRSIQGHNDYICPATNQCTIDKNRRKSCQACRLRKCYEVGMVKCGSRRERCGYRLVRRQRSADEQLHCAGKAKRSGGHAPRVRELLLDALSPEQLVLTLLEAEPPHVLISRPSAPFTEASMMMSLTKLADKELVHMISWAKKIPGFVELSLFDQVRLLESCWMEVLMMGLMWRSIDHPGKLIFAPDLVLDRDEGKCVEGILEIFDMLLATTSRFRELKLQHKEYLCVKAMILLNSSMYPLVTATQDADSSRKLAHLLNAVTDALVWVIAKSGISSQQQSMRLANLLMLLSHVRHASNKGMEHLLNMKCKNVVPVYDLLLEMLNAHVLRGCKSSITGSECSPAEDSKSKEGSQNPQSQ

| degradation of ERα protein (ERα [2]) | Structure (SMILES) | luciferase activity as % of the maximal ER-dependent response [1] [%] | effect on MDA-MB-231 cell proliferation (MDA-MB-231 (ER(−)) cells) | ER-dependent luciferase activity through ERβ (ERβ) | effect on T47D cell proliferation (T47D (ER(+)) cells) | ER-dependent luciferase activity through ERα (ERα [3]) |
| --- | --- | --- | --- | --- | --- | --- |
| not degraded | CC(C)=CCC/C(C)=C/CC/C(C)=C/CC[C@]1(C)CCc2cc(O)cc(C)c2O1 [δ-TT, δ-tocotrienol] | 86.6 | inhibited the proliferation | activate ER-dependent luciferase activity | inhibited the proliferation | activate ER-dependent luciferase activity |
| not degraded | Cc1cc(O)cc2c1OC(C)(CCCC(C)CCCC(C)CCCC(C)C)CC2 (centres unmarked) [δ-TP, δ-tocopherol] | 76.5 | no impact |  | significant stimulation | activate ER-dependent luciferase activity |
